Assay results from ChEMBL document CHEMBL1201862, “PubChem BioAssay data set” (2004).
Active and inactive are the calls of the source.

Legend:
[1] = HEK-293T cell viability reduction – luminescence, B-cell screen hits, cytotoxicity control for BCR NF-kB inhibitor project, dose response (AID 489021); type: functional, cell-based;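 also: HEK-293T cells carrying an NF-kB luciferase reporter; cells exposed to compound for about 14 hours before viability readout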
[2] = M. tuberculosis H37Rv growth inhibitors, H37Rv strain (AID 1626); type: functional
[3] = target: T1, Polyadenylate-binding protein 1 (Homo sapiens, UniProt P11940); test: MLLE binding blockers, Cy5 peptide tracer – biochemical, fluorescence polarization, Cy5-PAM2 peptide, secondary, miRNA deadenylation inhibitor project, dose response (AID 602260); type: functional; conditions: read-out: IC50_Mean
T1 sequence (P11940 whole entry): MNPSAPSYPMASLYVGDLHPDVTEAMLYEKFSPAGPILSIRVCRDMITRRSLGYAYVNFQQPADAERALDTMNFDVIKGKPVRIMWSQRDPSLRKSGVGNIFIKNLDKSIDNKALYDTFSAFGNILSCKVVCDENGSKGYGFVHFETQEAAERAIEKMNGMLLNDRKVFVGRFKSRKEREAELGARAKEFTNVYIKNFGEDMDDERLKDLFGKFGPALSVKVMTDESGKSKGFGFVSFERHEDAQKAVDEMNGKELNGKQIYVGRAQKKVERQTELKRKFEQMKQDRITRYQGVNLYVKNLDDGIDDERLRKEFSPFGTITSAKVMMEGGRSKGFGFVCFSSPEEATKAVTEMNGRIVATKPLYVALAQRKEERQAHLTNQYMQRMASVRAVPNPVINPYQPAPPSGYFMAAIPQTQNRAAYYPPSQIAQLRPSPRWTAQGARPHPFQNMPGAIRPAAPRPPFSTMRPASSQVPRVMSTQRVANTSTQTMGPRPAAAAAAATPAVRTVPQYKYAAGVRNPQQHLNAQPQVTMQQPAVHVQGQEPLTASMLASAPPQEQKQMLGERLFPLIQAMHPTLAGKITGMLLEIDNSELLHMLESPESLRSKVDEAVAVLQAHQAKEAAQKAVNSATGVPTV

[4] = target: T2, Low molecular weight phosphotyrosine protein phosphatase (Homo sapiens, UniProt P24666); type: functional; conditions: read-out: IC50_Mean;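 also: Dose-response confirmation assay measuring inhibition of LMPTP enzyme activity by fluorescence intensity read-out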
T2 sequence (P24666 whole entry): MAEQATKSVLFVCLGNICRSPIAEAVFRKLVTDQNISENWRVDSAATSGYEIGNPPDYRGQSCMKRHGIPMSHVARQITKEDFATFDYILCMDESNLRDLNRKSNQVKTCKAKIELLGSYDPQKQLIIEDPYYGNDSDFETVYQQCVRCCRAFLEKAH

[5] = target: Glutathione-S-transferase (Schistosoma japonicum, UniProt Q26513); test: GST-antibody interaction or FRET quenching – biochemical, TR-FRET, artefact control for Vif-APOBEC3G degradation inhibitor project, dose response (AID 1117362); type: functional
Sequence of Glutathione-S-transferase (Q26513 whole entry, the tested form may be a part): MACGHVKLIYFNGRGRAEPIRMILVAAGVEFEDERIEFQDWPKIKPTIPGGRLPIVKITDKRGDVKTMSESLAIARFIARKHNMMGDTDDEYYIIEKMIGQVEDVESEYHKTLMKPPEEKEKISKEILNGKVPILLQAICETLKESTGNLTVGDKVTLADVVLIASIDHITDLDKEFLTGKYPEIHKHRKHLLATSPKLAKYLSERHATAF

[6] = target: T1, Polyadenylate-binding protein 1; test: MLLE domain peptide-binding blockers, IC50 – biochemical, fluorescence polarization, FITC-PAM2 peptide, dose response (AID 602259); type: functional; conditions: read-out: IC50_Mean
[7] = Luminescence-based cell-based high throughput dose response assay to identify activators of the DAF-12 from the parasite S. stercoralis (ssDAF-12).; type: functional
[8] = target: T3, Oxysterols receptor LXR-beta (Homo sapiens, UniProt P55055); test: LXR agonists, Gal4 luciferase reporter, dose response, counter-screen for ssDAF-12 agonist project, cell-based, luminescence, HEK293, S. stercoralis campaign (AID 720737); type: functional; conditions: read-out: IC50 (the source's name)
T3 sequence (P55055 whole entry): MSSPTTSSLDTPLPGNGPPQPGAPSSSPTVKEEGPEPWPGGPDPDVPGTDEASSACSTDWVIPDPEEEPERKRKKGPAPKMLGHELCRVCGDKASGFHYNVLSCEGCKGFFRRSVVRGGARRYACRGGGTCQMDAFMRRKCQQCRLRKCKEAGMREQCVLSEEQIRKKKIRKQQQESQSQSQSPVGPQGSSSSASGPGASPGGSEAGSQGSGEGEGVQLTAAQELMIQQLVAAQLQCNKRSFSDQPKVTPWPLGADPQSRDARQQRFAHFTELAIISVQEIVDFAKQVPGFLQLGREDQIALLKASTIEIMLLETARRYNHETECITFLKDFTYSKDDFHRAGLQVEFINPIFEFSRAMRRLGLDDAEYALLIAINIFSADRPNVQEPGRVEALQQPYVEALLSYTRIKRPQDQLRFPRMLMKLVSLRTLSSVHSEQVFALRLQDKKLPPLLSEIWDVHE

[9] = HEK293 Cytotoxicity Assay Measured in Cell-Based System Using Plate Reader - 7071-01_Inhibitor_Dose_CherryPick_Activity_Set2.; type: functional
HEK293 = test: viability loss in HEK293T cells – cell-based, ATP luminescence, cherry-pick samples, cytotoxicity control, dose response (AID 687005); type: functional; conditions: Homo sapiens;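 also: cells exposed to compound for 48 hours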
[10] = viability loss in MITF-independent A375 cells – cell-based, CellTiter-Glo luminescence, dry powder, set 2, counter-screen for MITF inhibitor project, dose response (AID 624489); type: functional; conditions: A-375;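 also: actives are compounds lowering A375 viability meaning general cytotoxicity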
[11] = cytotoxicity in MITF-independent A375 cells – cell-based, CellTiter-Glo luminescence, dry powder, set 4, counter-screen for MITF inhibitor project, dose response (AID 624364); type: functional; conditions: A-375;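 also: A375 melanoma cells are MITF independent so this is a counter screen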
[12] = Potency on glucagon-like peptide 1 release, dose-response in NCI-H716 cell line, half maximal inhibitory concentration (AID 1117344); type: functional, cell-based
[13] = glucagon-like peptide-1 release potency in STC-1, concentration-response, half-maximal inhibitory concentration in the STC-1 line (AID 1117345); type: functional, cell-based
[14] = inhibitors of TRPM1-promoter reporter in SK-MEL-5 – cell-based, luciferase, dry powder, set 8, MITF inhibitor project, dose response (AID 624430); type: functional
[15] = MITF Orthogonal Assay: SK-MEL-5 CTG Assay Measured in Cell-Based System Using Plate Reader - 2084-02_Inhibitor_Dose_DryPowder_Activity_Set7.; type: functional
[16] = MITF: Counter assay: A375 proliferation Measured in Cell-Based System Using Plate Reader - 2084-03_Inhibitor_Dose_DryPowder_Activity_Set8.; type: functional; conditions: A-375
[17] = target: Disintegrin and metalloproteinase domain-containing protein 17 (Homo sapiens, UniProt P78536); test: exosite inhibitors of ADAM17, dose response, biochemical (AID 743260)
Sequence of Disintegrin and metalloproteinase domain-containing protein 17 (P78536 whole entry, the tested form may be a part): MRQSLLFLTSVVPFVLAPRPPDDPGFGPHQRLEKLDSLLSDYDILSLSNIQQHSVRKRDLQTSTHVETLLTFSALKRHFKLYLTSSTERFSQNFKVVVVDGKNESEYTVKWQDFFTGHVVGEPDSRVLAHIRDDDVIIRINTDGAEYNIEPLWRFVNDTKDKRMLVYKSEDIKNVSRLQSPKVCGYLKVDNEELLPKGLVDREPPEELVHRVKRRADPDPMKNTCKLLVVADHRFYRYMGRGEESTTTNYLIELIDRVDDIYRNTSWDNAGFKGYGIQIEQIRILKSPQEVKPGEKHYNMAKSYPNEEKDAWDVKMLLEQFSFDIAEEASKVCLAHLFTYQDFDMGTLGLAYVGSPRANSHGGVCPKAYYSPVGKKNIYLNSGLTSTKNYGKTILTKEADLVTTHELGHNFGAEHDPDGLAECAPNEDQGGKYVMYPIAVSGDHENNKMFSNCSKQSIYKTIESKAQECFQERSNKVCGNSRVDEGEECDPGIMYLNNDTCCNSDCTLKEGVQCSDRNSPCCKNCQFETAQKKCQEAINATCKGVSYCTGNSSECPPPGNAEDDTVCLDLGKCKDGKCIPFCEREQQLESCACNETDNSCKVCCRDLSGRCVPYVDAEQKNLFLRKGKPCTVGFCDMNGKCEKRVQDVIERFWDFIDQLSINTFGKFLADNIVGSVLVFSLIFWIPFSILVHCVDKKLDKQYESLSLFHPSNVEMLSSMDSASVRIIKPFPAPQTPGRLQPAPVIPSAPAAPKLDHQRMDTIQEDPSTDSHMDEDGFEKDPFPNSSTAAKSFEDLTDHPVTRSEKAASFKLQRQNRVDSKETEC

[18] = inhibition of ADAM10 peptide cleavage – biochemical, FRET peptide substrate, recombinant human ADAM10, selectivity assay for ADAM17 exosite inhibitor project, dose response (AID 743259);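 also: ADAM10 enzyme cleaving a FRET peptide substrate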
[19] = cytotoxicity toward HCT116 cells – cell-based, CellTiter-Glo luminescence, IC50, dose response (AID 1117332); type: functional; conditions: HCT-116
[20] = CellTiter-Glo luminescence survival assay, SW480 colon tumor line, concentration-response curve, half-maximal inhibitory concentration (AID 1117338); type: functional
[21] = cytotoxicity toward HT-29 cells – cell-based, CellTiter-Glo luminescence, IC50, dose response (AID 1117330); type: functional
[22] = Reduced DLD-1 viability, concentration-response, CellTiter-Glo luminescence (AID 1117352); type: functional
[23] = SNU-C1 cell viability reduction, dose response, CellTiter-Glo luminescence (AID 1117323); type: functional, cell-based
Bcl-2-related protein A1 [24] = target: T4, Bcl-2-related protein A1 (Mus musculus, UniProt Q07440); test: Bfl-1 binding inhibitors, SAR follow-up, biochemical, fluorescence polarization (AID 1070)
T4 sequence (Q07440 whole entry): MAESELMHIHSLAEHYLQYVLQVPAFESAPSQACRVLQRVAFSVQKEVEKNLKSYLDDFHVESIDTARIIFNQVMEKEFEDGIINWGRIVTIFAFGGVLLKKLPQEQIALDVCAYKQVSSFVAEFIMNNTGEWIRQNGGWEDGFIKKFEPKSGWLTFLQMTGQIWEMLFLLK

Bcl-2-related protein A1 [25] = target: T4, Bcl-2-related protein A1; test: small-molecule antagonists of Bfl-1/BH3 interaction – biochemical, TR-FRET, mouse Bfl-1, confirmation (AID 621);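 also: TR-FRET binding of GST-Bfl-1 to FITC-labelled Bid peptide via terbium antibody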
[26] = target: Glyceraldehyde-3-phosphate dehydrogenase (Homo sapiens, UniProt P04406)
Sequence of Glyceraldehyde-3-phosphate dehydrogenase (P04406 whole entry): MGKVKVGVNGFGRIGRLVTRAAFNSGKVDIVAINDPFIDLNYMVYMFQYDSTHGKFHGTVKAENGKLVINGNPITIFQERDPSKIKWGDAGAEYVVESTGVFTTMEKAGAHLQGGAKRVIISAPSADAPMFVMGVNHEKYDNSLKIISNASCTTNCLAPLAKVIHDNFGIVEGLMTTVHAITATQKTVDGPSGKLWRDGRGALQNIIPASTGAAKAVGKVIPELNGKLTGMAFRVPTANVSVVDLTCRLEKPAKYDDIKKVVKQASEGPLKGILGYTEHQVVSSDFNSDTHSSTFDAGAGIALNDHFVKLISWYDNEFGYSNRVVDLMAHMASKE

Ephrin type-A receptor 4 = Ephrin type-A receptor 4 (Mus musculus, UniProt Q03137); test: EphA4 ligand-binding antagonists – biochemical, colorimetric, mouse EphA4, primary screen (AID 689); type: functional
Sequence of Ephrin type-A receptor 4 (Q03137 whole entry): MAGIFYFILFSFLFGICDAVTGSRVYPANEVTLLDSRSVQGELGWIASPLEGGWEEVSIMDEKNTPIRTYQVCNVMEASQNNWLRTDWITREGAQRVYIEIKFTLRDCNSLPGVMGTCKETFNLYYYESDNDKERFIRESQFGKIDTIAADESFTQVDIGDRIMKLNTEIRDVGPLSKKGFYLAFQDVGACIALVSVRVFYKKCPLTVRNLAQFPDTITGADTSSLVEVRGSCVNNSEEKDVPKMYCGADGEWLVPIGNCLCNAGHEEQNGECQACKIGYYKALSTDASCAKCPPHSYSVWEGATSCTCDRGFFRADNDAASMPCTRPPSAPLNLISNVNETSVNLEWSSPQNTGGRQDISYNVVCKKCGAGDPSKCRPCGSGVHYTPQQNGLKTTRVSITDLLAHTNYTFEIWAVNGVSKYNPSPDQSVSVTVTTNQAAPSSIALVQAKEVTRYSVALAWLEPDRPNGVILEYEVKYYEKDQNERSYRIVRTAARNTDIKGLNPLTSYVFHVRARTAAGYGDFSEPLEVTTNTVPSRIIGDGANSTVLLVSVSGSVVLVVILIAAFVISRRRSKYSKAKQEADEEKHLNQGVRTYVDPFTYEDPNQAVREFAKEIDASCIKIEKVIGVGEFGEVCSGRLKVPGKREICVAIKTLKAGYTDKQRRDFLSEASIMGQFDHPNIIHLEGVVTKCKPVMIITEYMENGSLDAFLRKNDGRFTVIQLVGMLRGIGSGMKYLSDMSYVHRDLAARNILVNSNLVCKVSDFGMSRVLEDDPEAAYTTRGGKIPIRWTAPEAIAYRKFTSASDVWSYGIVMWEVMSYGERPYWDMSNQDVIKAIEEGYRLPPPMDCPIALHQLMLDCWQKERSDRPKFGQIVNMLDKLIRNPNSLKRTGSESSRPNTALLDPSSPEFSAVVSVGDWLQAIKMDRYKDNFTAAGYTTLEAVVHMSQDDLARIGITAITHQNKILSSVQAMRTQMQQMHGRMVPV

[27] = IC50 of insulin release inhibition, rat insulinoma INS-1E line, 5 mM glucose, cell-based (AID 1117331); type: functional
[28] = target: G-protein coupled receptor 183 (Homo sapiens, UniProt P32249); test: SAR confirmation of small molecule antagonists of the EBI2 receptor via a luminescent beta-arrestin assa.; type: functional
Sequence of G-protein coupled receptor 183 (P32249 whole entry): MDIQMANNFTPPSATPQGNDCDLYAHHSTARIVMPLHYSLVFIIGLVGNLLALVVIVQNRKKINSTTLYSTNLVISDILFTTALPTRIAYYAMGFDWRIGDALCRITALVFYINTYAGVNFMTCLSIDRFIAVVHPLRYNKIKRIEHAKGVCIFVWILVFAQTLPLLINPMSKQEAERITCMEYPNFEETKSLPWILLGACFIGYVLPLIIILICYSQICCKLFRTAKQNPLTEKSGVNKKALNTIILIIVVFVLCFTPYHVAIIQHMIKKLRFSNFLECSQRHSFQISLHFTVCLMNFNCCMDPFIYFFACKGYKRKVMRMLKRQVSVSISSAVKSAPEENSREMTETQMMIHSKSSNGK

[29] = target: T5, Dual specificity protein phosphatase 6 (Rattus norvegicus, UniProt Q64346); test: inhibition of rat DUSP6 enzyme activity – biochemical, in vitro, primary screen (AID 425)
T5 sequence (Q64346 whole entry): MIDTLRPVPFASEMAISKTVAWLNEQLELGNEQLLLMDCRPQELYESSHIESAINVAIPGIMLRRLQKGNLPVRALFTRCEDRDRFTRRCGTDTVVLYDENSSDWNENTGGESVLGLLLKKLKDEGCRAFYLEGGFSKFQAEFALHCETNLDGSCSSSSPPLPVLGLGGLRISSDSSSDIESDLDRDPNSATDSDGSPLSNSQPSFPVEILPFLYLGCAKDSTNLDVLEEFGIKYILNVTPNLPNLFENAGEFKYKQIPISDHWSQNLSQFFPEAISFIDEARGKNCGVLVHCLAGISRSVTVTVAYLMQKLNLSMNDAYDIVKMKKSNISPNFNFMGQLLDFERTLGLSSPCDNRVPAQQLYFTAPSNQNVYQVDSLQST

[30] = PAX5 cellular inhibition readout – cell-based, plate reader, dry powder samples, selectivity assay for PAX8 inhibitor project, dose response (AID 743047); type: functional;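 also: HEK293 cells carrying a Pax5 driven CD19 promoter luciferase reporter; potency of inhibitors that lower reporter luminescence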
[31] = inhibitors acting on PAX2 in cells – cell-based, plate reader, dry powder samples, selectivity assay for PAX8 inhibitor project, dose response (AID 743048); type: functional;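 also: HEK293 cells carrying a WT1 promoter luciferase reporter driven by expressed Pax2; potency is for inhibition of Pax2 driven reporter signal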
Paired box protein Pax-8 = Paired box protein Pax-8 (Homo sapiens, UniProt Q06710); test: PAX8 transcriptional activity inhibition in RMG-I – RMG-I cells, luciferase, cherry-pick, dose response (AID 687027); type: functional, cell-based;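 also: luciferase reporter driven by Pax8 target thyroperoxidase promoter measured by SteadyGlo luminescence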
Sequence of Paired box protein Pax-8 (Q06710 whole entry): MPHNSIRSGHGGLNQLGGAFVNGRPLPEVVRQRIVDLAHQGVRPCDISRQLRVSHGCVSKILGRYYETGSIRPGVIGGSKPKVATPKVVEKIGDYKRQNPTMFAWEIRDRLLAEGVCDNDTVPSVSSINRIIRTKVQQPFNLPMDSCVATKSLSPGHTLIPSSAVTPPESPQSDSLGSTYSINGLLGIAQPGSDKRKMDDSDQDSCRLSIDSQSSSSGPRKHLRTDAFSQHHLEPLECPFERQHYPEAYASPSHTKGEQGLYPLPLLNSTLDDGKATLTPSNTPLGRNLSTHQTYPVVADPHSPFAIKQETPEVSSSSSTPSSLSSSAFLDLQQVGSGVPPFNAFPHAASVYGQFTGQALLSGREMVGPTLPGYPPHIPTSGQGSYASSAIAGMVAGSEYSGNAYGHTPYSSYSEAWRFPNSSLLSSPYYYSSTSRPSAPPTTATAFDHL

[32] = OVCAR-3 cell viability loss – plate reader, dry powder samples, PAX8 inhibitor project, dose response (AID 743044); type: functional, cell-based
[33] = IGROV1 cell killing – plate reader, dry powder samples, PAX8 inhibitor project, dose response (AID 743043); type: functional, cell-based; conditions: IGROV-1
[34] = OV-90 cell viability loss – plate reader, dry powder, SA8, PAX8 inhibitor project, dose response (AID 743149); type: functional, cell-based
[35] = PAX8-dependent cell viability loss – plate reader, dry powder, dose response (AID 743049); type: functional, cell-based
[36] = COV434 cell viability loss – plate reader, dry powder, SA7, cytotoxicity control for PAX8 inhibitor project, dose response (AID 743145); type: functional, cell-based

Nc1ccccc1SCC(=O)Nc1nc(-c2ccccc2)cs1
IC50 [1]: > 80 µM (inactive)
IC50 [2]: > 100 µM (active)

CN=c1cccccc1S
IC50 [3]: > 66 µM (inactive)
IC50 [4]: 49 µM (inactive)
IC50 [5]: > 100 µM (active)
IC50 [6]: > 66 µM (inactive)

O=C(COn1nnc2ccc(C(F)(F)F)cc21)Nc1c(Cl)cccc1Cl
IC50 [7]: > 67.6 µM (inactive)
EC50 [8]: > 67.6 µM (inactive)

O=C(Nc1cccc(F)c1)N[C@H]1CC[C@H](CCNS(=O)(=O)c2cccc(Cl)c2)O[C@@H]1CO
AC50 [9]: 26 µM (active)
AC50 (HEK293): 26 µM (active)

O=C1c2ccccc2C(=O)N1CC(O)CN1CCOCC1 (stereo unspecified)
IC50 [7]: > 67.5 µM (inactive)
EC50 [8]: > 67.5 µM (inactive)

CN1CCN(C2=C(NC(=O)c3ccc(Br)cc3)C(=O)c3ccccc3C2=O)CC1
AC50 [10]: 8.99 µM (active)
AC50 [11]: 23.5 µM (active)

CCCCCCCCCCCC[N+](C)(C)CCOc1ccccc1 [DOMIPHEN BROMIDE]
IC50 [12]: 16.2 µM (inactive)
IC50 [13]: > 40 µM (inactive)

O=C1C(Nc2cccc(Br)c2)=C(N2CCCC2)C(=O)c2ccccc21
AC50 [14]: 13.1 µM (active)
AC50 [15]: 11.8 µM (active)
AC50 [16]: > 70 µM (inactive)

COC(=O)[C@H](CC(C)C)N(CCc1cn(Cc2ccccc2)nn1)S(=O)(=O)c1ccccc1Br
IC50 [17]: > 69.5 µM (inactive)
IC50 [18]: > 69.5 µM (inactive)

CC(C(=O)O)c1cccc(C(=O)c2ccccc2)c1 (stereo unspecified) [KETOPROFEN]
IC50 [19]: 10.5 µM (inactive)
IC50 [20]: 10.3 µM (inactive)
IC50 [21]: 14.4 µM (inactive)
IC50 [22]: 8.64 µM (inactive)
IC50 [23]: 3.8 µM (active)

CCN1CCN(C2=C(Cl)C(=O)N(c3ccc(Cl)nc3)C2=O)CC1
IC50 (Bcl-2-related protein A1 [24]): 15 µM (active)
IC50 (Bcl-2-related protein A1 [25]): 20.8 µM (active)
IC50 [26]: > 100 µM (not active)

O=C1C(Nc2ccc(Cl)cc2)=C(N2CCCCC2)C(=O)c2ccccc21
AC50 [14]: 2.87 µM (active)
AC50 [15]: 4.38 µM (active)
AC50 [16]: 26.8 µM (active)

Cc1ccsc1/C=C/C1=Cc2c(sc(NC(=O)CSc3nnc(N)[nH]3)c2C#N)C(C)(C)C1
IC50 (Ephrin type-A receptor 4): 3.15 µM (active)

CCC(CN)=C(c1ccccc1)c1ccccc1
IC50 [27]: 10.8 µM (inactive)

O=C(/C=C/c1ccc(F)cc1)N1CCN(S(=O)(=O)c2cccc(Cl)c2)CC1
IC50 [28]: 0.0115 µM (active)

NC1=C(c2ccccc2)C(=O)c2ccccc2C1=O
AC50 [10]: > 70 µM (inactive)
AC50 [11]: > 70 µM (inactive)

Cc1cc(OI)c(C(C)C)cc1-c1cc(C(C)C)c(OI)cc1C [THYMOL IODIDE]
IC50 [12]: > 40 µM (inactive)
IC50 [27]: > 33.3 µM (inactive)
IC50 [13]: 15.1 µM (inactive)

O=C(NCC1COc2ccccc2O1)c1cccc(S(=O)(=O)N2CCN(c3ccccc3)CC2)c1 (stereo unspecified)
IC50 [17]: > 69.5 µM (inactive)
IC50 [18]: > 69.5 µM (inactive)

C[C@H]1C[C@H]2[C@@H]3CCC4=CC(=O)C=C[C@]4(C)[C@@]3(Cl)[C@@H](O)C[C@]2(C)[C@@]1(O)C(=O)CO [BECLOMETHASONE]
IC50 [29]: > 100 µM (not active)

C[C@@H]1CCCCO[C@H](CN(C)Cc2ccccc2)[C@H](C)CN([C@@H](C)CO)C(=O)c2cc(NS(=O)(=O)c3cccs3)ccc2O1
AC50 [9]: 30.9 µM (active)
AC50 (HEK293): 30.9 µM (active)

O=C(/C=C/c1ccccc1F)N1CCN(S(=O)(=O)c2ccc(Br)cc2)CC1
IC50 [28]: 0.252 µM (active)

CCCC(=O)C1=C(NCCc2c(C)[nH]c3ccc(C)cc23)CCCC1=O
IC50 [2]: > 100 µM (active)

CCCN1C(=O)/C(=C/C=C2\N(CC)c3ccccc3C2(C)C)SC1=S
IC50 (Ephrin type-A receptor 4): 5.08 µM (active)

CCc1ccc(/C=C2\SC(=S)N(CCCC(=O)N(CCO)c3ccccc3)C2=O)cc1
AC50 [30]: 33 µM (active)
AC50 [31]: 31.9 µM (active)
AC50 (Paired box protein Pax-8): 7.65 µM (active)
AC50 [32]: 29.1 µM (active)
AC50 [33]: 9.33 µM (active)
AC50 [34]: 35.1 µM (active)
AC50 [35]: 15.1 µM (active)
AC50 [36]: 8.05 µM (active)
